Measured values from ChEMBL document CHEMBL1201862, “PubChem BioAssay data set” (2004).
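Growth conditions: 96-well plates. Treatment: test compound, 48 hours, 5 concentrations. Analysis: linear interpolation between bracketing concentrations; unreached endpoints set to highest concentration. GI50 marks 50% less growth.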 The source made the active and inactive calls. No stated cut-off is given here; in the data, active = GI50 up to about 1.1 µM and inactive = higher.

Key:
Assay in all cases: NCI anticancer screen, dose series, 48 h
OVCAR-3 = test system: OVCAR-3
RPMI-8226 = test system: RPMI-8226
MDA-N = test system: MDA-N
Hs-578T = test system: Hs-578T
SK-MEL-2 = test system: SK-MEL-2
Malme-3M = test system: Malme-3M
DU-145 = test system: DU-145
NCI-H226 = test system: NCI-H226
PC-3 = test system: PC-3
K562 = test system: K562
OVCAR-8 = test system: OVCAR-8
MCF7 = test system: MCF7
M14 = test system: M14
SK-OV-3 = test system: SK-OV-3
HOP-62 = test system: HOP-62
SNB-19 = test system: SNB-19
BT-549 = test system: BT-549
SR = test system: SR
OVCAR-5 = test system: OVCAR-5
COLO 205 = test system: COLO 205

Compound	GI50 (OVCAR-3)	GI50 (RPMI-8226)	GI50 (MDA-N)	GI50 (Hs-578T)	GI50 (SK-MEL-2)	GI50 (Malme-3M)	GI50 (DU-145)	GI50 (NCI-H226)	GI50 (PC-3)	GI50 (K562)	GI50 (OVCAR-8)	GI50 (MCF7)	GI50 (M14)	GI50 (SK-OV-3)	GI50 (HOP-62)	GI50 (SNB-19)	GI50 (BT-549)	GI50 (SR)	GI50 (OVCAR-5)	GI50 (COLO 205)
CS(=O)(=O)c1ccc(/N=C/C=C/Nc2ccc(S(C)(=O)=O)cc2)cc1	> 100 µM (inactive)	> 100 µM (inactive)	> 100 µM (inactive)	> 100 µM (inactive)	> 100 µM (inactive)	> 100 µM (inactive)	> 100 µM (inactive)	> 100 µM (inactive)	> 100 µM (inactive)	> 100 µM (inactive)	> 100 µM (inactive)	> 100 µM (inactive)	> 100 µM (inactive)	> 100 µM (inactive)	> 100 µM (inactive)	> 100 µM (inactive)	> 100 µM (inactive)	> 100 µM (inactive)	> 100 µM (inactive)	> 100 µM (inactive)
c1ccc2nc3c(nc2c1)sc1nc2ccccc2n13	> 100 µM (inactive)	> 100 µM (inactive)	> 100 µM (inactive)	> 100 µM (inactive)		> 100 µM (inactive)	> 100 µM (inactive)	> 100 µM (inactive)	> 100 µM (inactive)	> 100 µM (inactive)	> 100 µM (inactive)	0.933 µM (active)	> 100 µM (inactive)	> 100 µM (inactive)		93.8 µM (inactive)	> 100 µM (inactive)	> 100 µM (inactive)	> 100 µM (inactive)	> 100 µM (inactive)
CC1C2CC(CC2N)C1(C)C (configuration not stated)	> 100 µM (inactive)		> 100 µM (inactive)	> 100 µM (inactive)		> 100 µM (inactive)	> 100 µM (inactive)	> 100 µM (inactive)	> 100 µM (inactive)	> 100 µM (inactive)	> 100 µM (inactive)	> 100 µM (inactive)	> 100 µM (inactive)	> 100 µM (inactive)	> 100 µM (inactive)	> 100 µM (inactive)	> 100 µM (inactive)	> 100 µM (inactive)	> 100 µM (inactive)	> 100 µM (inactive)
CC[C@@]1(O)C(=O)OCc2c1cc1n(c2=O)Cc2c-1nc1ccccc1c2/C=N\NC(=O)C(N)=O	18.3 µM (inactive)	0.61 µM (active)	5.61 µM (inactive)	56.9 µM (inactive)	29 µM (inactive)	7.06 µM (inactive)	0.0736 µM (active)	0.219 µM (active)	4.36 µM (inactive)	0.505 µM (active)	0.248 µM (active)	0.0189 µM (active)	0.208 µM (active)	0.467 µM (active)	0.107 µM (active)	0.0383 µM (active)	3.44 µM (inactive)	< 0.01 µM (active)	25.8 µM (inactive)	> 50.1 µM (inactive)
C1COCCN1.S=C(S)N1CCOCC1	2.68 µM (inactive)	1.4 µM (inactive)	94 µM (inactive)	> 100 µM (inactive)	36.4 µM (inactive)	28.4 µM (inactive)	> 100 µM (inactive)	> 100 µM (inactive)	> 100 µM (inactive)	1.46 µM (inactive)	> 100 µM (inactive)	29.4 µM (inactive)	12.8 µM (inactive)	5.4 µM (inactive)	92.3 µM (inactive)	> 100 µM (inactive)	> 100 µM (inactive)	1.04 µM (active)	12.5 µM (inactive)	0.661 µM (active)
CCOC(=O)C1(Cc2ccccc2)Cc2cc3c(cc2C1=O)CCC3 (configuration not stated)	> 100 µM (inactive)	> 100 µM (inactive)	> 100 µM (inactive)	> 100 µM (inactive)	> 100 µM (inactive)	> 100 µM (inactive)	> 100 µM (inactive)	> 100 µM (inactive)	> 100 µM (inactive)	> 100 µM (inactive)	> 100 µM (inactive)	> 100 µM (inactive)	92 µM (inactive)	> 100 µM (inactive)	> 100 µM (inactive)	> 100 µM (inactive)	> 100 µM (inactive)	> 100 µM (inactive)	> 100 µM (inactive)	> 100 µM (inactive)
Cn1c(=O)n2n(c1=O)Cc1cccc3cccc(c13)C2	> 100 µM (inactive)	> 100 µM (inactive)	> 100 µM (inactive)	> 100 µM (inactive)	> 100 µM (inactive)	> 100 µM (inactive)	> 100 µM (inactive)	> 100 µM (inactive)	> 100 µM (inactive)	> 100 µM (inactive)	> 100 µM (inactive)	> 100 µM (inactive)	> 100 µM (inactive)	> 100 µM (inactive)		> 100 µM (inactive)	> 100 µM (inactive)	> 100 µM (inactive)	> 100 µM (inactive)	> 100 µM (inactive)
CCOC(=O)c1c(O)cn2c1[nH]c1cccc3cccc2c31		> 100 µM (inactive)	> 100 µM (inactive)	> 100 µM (inactive)	> 100 µM (inactive)	> 100 µM (inactive)	71.6 µM (inactive)	> 100 µM (inactive)	> 100 µM (inactive)	> 100 µM (inactive)	44.1 µM (inactive)	49.2 µM (inactive)	> 100 µM (inactive)	> 100 µM (inactive)	35.6 µM (inactive)	97.7 µM (inactive)	> 100 µM (inactive)	50.5 µM (inactive)	> 100 µM (inactive)	71.6 µM (inactive)
CC(=O)NC(C)(C)C1CC=C(C)CC1 (configuration not stated)	> 100 µM (inactive)	> 100 µM (inactive)	> 100 µM (inactive)	> 100 µM (inactive)		> 100 µM (inactive)	> 100 µM (inactive)	> 100 µM (inactive)	> 100 µM (inactive)	> 100 µM (inactive)	> 100 µM (inactive)	> 100 µM (inactive)	> 100 µM (inactive)	> 100 µM (inactive)	> 100 µM (inactive)	> 100 µM (inactive)	> 100 µM (inactive)	> 100 µM (inactive)	> 100 µM (inactive)	> 100 µM (inactive)
COC(=O)C1C2CCCN2OC1(C)CO (configuration not stated)	> 100 µM (inactive)	> 100 µM (inactive)	> 100 µM (inactive)	> 100 µM (inactive)	> 100 µM (inactive)		> 100 µM (inactive)	> 100 µM (inactive)	> 100 µM (inactive)	> 100 µM (inactive)	> 100 µM (inactive)	> 100 µM (inactive)	> 100 µM (inactive)	> 100 µM (inactive)	> 100 µM (inactive)	> 100 µM (inactive)	> 100 µM (inactive)	> 100 µM (inactive)	> 100 µM (inactive)	> 100 µM (inactive)
CCOC(=O)CC(c1ccccc1)C(C)(C(=O)OCC)C(=O)OCC (configuration not stated)			> 10 µM (inactive)	> 100 µM (inactive)	> 100 µM (inactive)	> 100 µM (inactive)	> 100 µM (inactive)	> 100 µM (inactive)	77.6 µM (inactive)	> 100 µM (inactive)	> 100 µM (inactive)	> 100 µM (inactive)	> 100 µM (inactive)	> 100 µM (inactive)	> 100 µM (inactive)	> 100 µM (inactive)	70.1 µM (inactive)	61.2 µM (inactive)	> 100 µM (inactive)	> 100 µM (inactive)
CC1=C2CC(C)(C)CC(=O)C2(C)CCC1=O (configuration not stated)		3.02 µM (inactive)	> 100 µM (inactive)	> 100 µM (inactive)	> 100 µM (inactive)	> 100 µM (inactive)	> 100 µM (inactive)	> 100 µM (inactive)	> 100 µM (inactive)	> 100 µM (inactive)	> 100 µM (inactive)	> 100 µM (inactive)	> 100 µM (inactive)	> 100 µM (inactive)	> 100 µM (inactive)	> 100 µM (inactive)	> 100 µM (inactive)	94.2 µM (inactive)	> 100 µM (inactive)	> 100 µM (inactive)
CC(=O)OC[C@]1(C(=O)C(O)c2ccoc2)[C@H](C)CC[C@@]23COC(=O)C2=CCC[C@@H]31 (some centres not stated)	> 10 µM (inactive)	> 10 µM (inactive)	> 10 µM (inactive)	> 10 µM (inactive)	> 10 µM (inactive)		> 10 µM (inactive)	> 10 µM (inactive)	> 10 µM (inactive)		> 10 µM (inactive)	> 10 µM (inactive)	> 10 µM (inactive)	> 10 µM (inactive)		> 10 µM (inactive)	> 10 µM (inactive)	> 10 µM (inactive)	> 10 µM (inactive)	> 10 µM (inactive)
O=C(N/N=C\c1cccc2ccccc12)Nc1cccc2ccccc12			3.84 µM (inactive)	43 µM (inactive)	28.8 µM (inactive)	35.2 µM (inactive)	> 100 µM (inactive)	49.4 µM (inactive)	26.9 µM (inactive)	3.17 µM (inactive)	32.4 µM (inactive)	7.8 µM (inactive)	28.8 µM (inactive)		7.11 µM (inactive)	16.4 µM (inactive)	27.7 µM (inactive)	3.29 µM (inactive)	> 100 µM (inactive)	16.9 µM (inactive)
CCN1C(=O)/C(=C2\SC(c3ccccc3)(c3ccccc3)c3ccccc32)SC1=S	51.9 µM (inactive)	> 100 µM (inactive)	> 100 µM (inactive)	32.2 µM (inactive)		> 100 µM (inactive)	> 100 µM (inactive)	> 100 µM (inactive)	74.5 µM (inactive)	> 100 µM (inactive)	75.5 µM (inactive)	> 100 µM (inactive)	93.1 µM (inactive)	> 100 µM (inactive)	27.5 µM (inactive)	10.1 µM (inactive)	43.9 µM (inactive)	18.6 µM (inactive)	> 100 µM (inactive)	64.4 µM (inactive)
